Assay results reported in PubChem BioAssay (NCI).
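GI50 is the concentration that inhibits growth by half. Definition used: TGI = concentration required for complete inhibition of growth.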

Tests used:
Test in all cases: NCI-60 cell line screen, 384-well format
[1] = tested on: SW-620 colon
[2] = tested on: U251 glioblastoma
[3] = tested on: OVCAR-8 ovarian
[4] = tested on: SK-MEL-5 melanoma
[5] = tested on: SK-OV-3 ovarian
[6] = tested on: MDA-MB-231 breast
[7] = tested on: HOP-62 NSCLC
[8] = tested on: SK-MEL-28 melanoma
[9] = tested on: CAKI-1 renal
[10] = tested on: A549 NSCLC
[11] = tested on: M14 melanoma
[12] = tested on: SNB-75 CNS
[13] = tested on: IGROV1 ovarian
[14] = tested on: HS 578T breast
[15] = tested on: HT29 colon
[16] = tested on: RPMI-8226 leukemia
[17] = tested on: HCT-116 colon
[18] = tested on: SF-268 CNS
[19] = tested on: EKVX NSCLC
[20] = tested on: ACHN renal
[21] = tested on: MOLT-4 leukemia
[22] = tested on: OVCAR-4 ovarian
[23] = tested on: SNB-19 CNS
[24] = tested on: HL-60(TB) leukemia
[25] = tested on: UACC-62 melanoma
[26] = tested on: NCI-H226 lung
[27] = tested on: PC-3 prostate
[28] = tested on: NCI-H460 NSCLC
[29] = tested on: HOP-92 NSCLC
[30] = tested on: OVCAR-3 ovarian
[31] = tested on: NCI-H322M lung
[32] = tested on: BT-549 breast
[33] = tested on: MCF7 breast
[34] = tested on: DU-145 prostate
[35] = tested on: KM12 colon
[36] = tested on: A498 renal
[37] = tested on: NCI-H522 lung
[38] = tested on: COLO 205 colon
[39] = tested on: T-47D breast
[40] = tested on: 786-0 renal
[41] = tested on: MDA-MB-435 melanoma
[42] = tested on: SR leukemia
[43] = tested on: LOX IMVI melanoma
[44] = tested on: CCRF-CEM leukemia
[45] = tested on: UACC-257 melanoma
[46] = tested on: NCI-H23 lung
[47] = tested on: SN12C renal
[48] = tested on: TK-10 renal
[49] = tested on: HCT-15 colon
[50] = tested on: RXF 393 renal
[51] = tested on: MALME-3M melanoma
[52] = tested on: SF-539 CNS
[53] = tested on: SF-295 CNS
[54] = tested on: HCC-2998 colon
[55] = tested on: K-562 leukemia
[56] = tested on: UO-31 renal
[57] = tested on: MDA-MB-468 breast
[58] = tested on: NCI/ADR-RES ovarian

CC(C)c1c(-c2ccccc2)nc2c(C#N)c[nH]n2c1=O
GI50 [1]: 38.8 µM
TGI [1]: > 100 µM
GI50 [2]: 34.4 µM
TGI [2]: > 100 µM
GI50 [3]: 37.6 µM
TGI [3]: > 100 µM
GI50 [4]: 19.4 µM
TGI [4]: 35.6 µM
GI50 [5]: 36.8 µM
TGI [5]: > 100 µM
GI50 [6]: 24.2 µM
TGI [6]: 53.5 µM
GI50 [7]: 24.9 µM
TGI [7]: 65.9 µM
GI50 [8]: 28.5 µM
TGI [8]: 96.8 µM
GI50 [9]: 44.8 µM
TGI [9]: > 100 µM
GI50 [10]: 33.1 µM
TGI [10]: > 100 µM
GI50 [11]: 30.7 µM
TGI [11]: 96.8 µM
GI50 [12]: 35.2 µM
TGI [12]: > 100 µM
GI50 [13]: 44 µM
TGI [13]: > 100 µM
GI50 [14]: 37.7 µM
TGI [14]: > 100 µM
GI50 [15]: 38 µM
TGI [15]: > 100 µM
GI50 [16]: 21.1 µM
TGI [16]: 37.9 µM
GI50 [17]: 34.5 µM
TGI [17]: > 100 µM
GI50 [18]: 36.6 µM
TGI [18]: > 100 µM
GI50 [19]: 22.4 µM
TGI [19]: 46.4 µM
GI50 [20]: 38.3 µM
TGI [20]: > 100 µM
GI50 [21]: 16.2 µM
TGI [21]: 29.9 µM
GI50 [22]: 25.9 µM
TGI [22]: 74.2 µM
GI50 [23]: 43.6 µM
TGI [23]: > 100 µM
GI50 [24]: 12.2 µM
TGI [24]: 25.7 µM
GI50 [25]: 24.2 µM
TGI [25]: 66.7 µM
GI50 [26]: 27 µM
TGI [26]: 70.9 µM
GI50 [27]: 37.2 µM
TGI [27]: > 100 µM
GI50 [28]: 27.4 µM
TGI [28]: 65.3 µM
GI50 [29]: 30.5 µM
TGI [29]: 89 µM
GI50 [30]: 18 µM
TGI [30]: 36.3 µM
GI50 [31]: 33.6 µM
TGI [31]: > 100 µM
GI50 [32]: 39.9 µM
TGI [32]: > 100 µM
GI50 [33]: 20.9 µM
TGI [33]: 54.7 µM
GI50 [34]: 31.9 µM
TGI [34]: > 100 µM
GI50 [35]: 30.8 µM
TGI [35]: > 100 µM
GI50 [36]: 40.2 µM
TGI [36]: > 100 µM
GI50 [37]: 19 µM
TGI [37]: 37.6 µM
GI50 [38]: 24.1 µM
TGI [38]: 47.9 µM
GI50 [39]: 21 µM
TGI [39]: 42.9 µM
GI50 [40]: 33.6 µM
TGI [40]: > 100 µM
GI50 [41]: 39.9 µM
TGI [41]: > 100 µM
GI50 [42]: 25.2 µM
TGI [42]: 41.2 µM
GI50 [43]: 21.1 µM
TGI [43]: 41.9 µM
GI50 [44]: 20.8 µM
TGI [44]: 42.4 µM
GI50 [45]: 22.3 µM
TGI [45]: 46.3 µM
GI50 [46]: 20.3 µM
TGI [46]: 44.5 µM
GI50 [47]: 20.3 µM
TGI [47]: 41.9 µM
GI50 [48]: 34.1 µM
TGI [48]: > 100 µM
GI50 [49]: 38.8 µM
TGI [49]: > 100 µM
GI50 [50]: 28.6 µM
TGI [50]: > 100 µM
GI50 [51]: 17.6 µM
TGI [51]: 36.1 µM
GI50 [52]: 34.2 µM
TGI [52]: > 100 µM
GI50 [53]: 22.9 µM
TGI [53]: 62.4 µM
GI50 [54]: 44.9 µM
TGI [54]: > 100 µM
GI50 [55]: 37.7 µM
TGI [55]: > 100 µM
GI50 [56]: 38.9 µM
TGI [56]: > 100 µM
GI50 [57]: 19.6 µM
TGI [57]: 37.2 µM
GI50 [58]: 27.5 µM
TGI [58]: 69.5 µM
